Measurements taken from patent US8546414B2, “Ion channel modulators and methods of use” (Vertex Pharmaceuticals Incorporated, priority 2004, dated 2013).
pIC50: −log10 of the molar value.

Legend:
Format in all cases: cell-based
CaV2.2 = target: T1, CaV2.2 (Homo sapiens, UniProt Q00975); test: VIPR optical membrane potential assay with electrical stimulation, CaV2.2; conditions: Table 9, CaV 2.2 receptors
T1 construct: expressed in transfected cells; host or cells: HEK293
Outline: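 HEK293 cells stably expressing CaV2.2 stained with CC2-DMPE/DiSBAC2(3) voltage-sensitive dyes (10 μM final CC2-DMPE, 30 min, RT), then compound added and cells electrically stimulated for 3-5 s. Read-out: background-subtracted 460/580 nm emission ratio; response R=Rf/Ri (post- vs pre-stimulus ratio); antagonism seen as reduced response.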

NaV1.3 = target: T2, NaV1.3 (Homo sapiens, UniProt Q9NY46); test: VIPR optical membrane potential assay with electrical stimulation, NaV1.3; conditions: Table 9, NaV 1.3 receptors
T2 construct: expressed in transfected cells; host or cells: HEK293
Outline: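 HEK293 cells stably expressing NaV1.3, stained with CC2-DMPE (10 μM final) then DiSBAC2(3) with ABSC1, 30 min each at RT; compounds added with oxonol. Electrical stimulation for 3 s; 460/580 nm background-subtracted emission ratio Rf/Ri, normalised to tetracaine (positive) and untreated (negative) controls.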

NaV1.8 = NaV1.8 (Homo sapiens, UniProt Q9Y5Y9); test: VIPR optical membrane potential assay, NaV1.8 (other subtypes in an analogous mode); conditions: Table 9, NaV 1.8 receptors
Experimental: Antagonist properties of test compounds were assessed as follows. Cells expressing the NaV of interest were placed into microtiter plates. After an incubation period, the cells were stained with fluorescent dyes sensitive to the transmembrane potential. The test compounds were added to the microtiter plate. The cells were stimulated with either chemical or electrical means to evoke a NaV dependent membrane potential change from unblocked channels, which was detected and measured with trans-membrane potential-sensitive dyes. Antagonists were detected as a decreased membrane potential response to the stimulus.
24 hours before the assay on VIPR, CHO cells endogenously expressing a NaV 1.2 type voltage-gated NaV are seeded in 96-well poly-lysine coated plates at 60,000 cells per well. […] Plates are incubated in the dark for 30 minutes at room temperature. • 4) While the cells are being stained with coumarin, a […] oxonol solution in BS#2 is prepared. […] As before, the residual volume should be 40 μL. • 6) Upon removing the bath, the cells are loaded with 80 μL of the DiSBAC2(3) solution, after which test compound, dissolved in DMSO, is added to achieve the desired test concentration to each well from the drug addition plate and mixed thoroughly. The volume in the well should be roughly 121 μL. The cells are then incubated for 20-30 minutes. • 7) Once the incubation is complete, the cells are ready to be assayed on VIPR® with a sodium addback protocol. 120 μL of Bath solution #1 is added to stimulate the NaV dependent depolarization. […] tetracaine was used as an antagonist positive control for block of the NaV channel. Analysis of VIPR® Data:
The following is an example of how NaV1.3 inhibition activity is measured using the optical membrane potential method#2. Other subtypes are performed in an analogous mode in a cell line expressing the NaV of interest.

T1 sequence (Q00975 whole entry): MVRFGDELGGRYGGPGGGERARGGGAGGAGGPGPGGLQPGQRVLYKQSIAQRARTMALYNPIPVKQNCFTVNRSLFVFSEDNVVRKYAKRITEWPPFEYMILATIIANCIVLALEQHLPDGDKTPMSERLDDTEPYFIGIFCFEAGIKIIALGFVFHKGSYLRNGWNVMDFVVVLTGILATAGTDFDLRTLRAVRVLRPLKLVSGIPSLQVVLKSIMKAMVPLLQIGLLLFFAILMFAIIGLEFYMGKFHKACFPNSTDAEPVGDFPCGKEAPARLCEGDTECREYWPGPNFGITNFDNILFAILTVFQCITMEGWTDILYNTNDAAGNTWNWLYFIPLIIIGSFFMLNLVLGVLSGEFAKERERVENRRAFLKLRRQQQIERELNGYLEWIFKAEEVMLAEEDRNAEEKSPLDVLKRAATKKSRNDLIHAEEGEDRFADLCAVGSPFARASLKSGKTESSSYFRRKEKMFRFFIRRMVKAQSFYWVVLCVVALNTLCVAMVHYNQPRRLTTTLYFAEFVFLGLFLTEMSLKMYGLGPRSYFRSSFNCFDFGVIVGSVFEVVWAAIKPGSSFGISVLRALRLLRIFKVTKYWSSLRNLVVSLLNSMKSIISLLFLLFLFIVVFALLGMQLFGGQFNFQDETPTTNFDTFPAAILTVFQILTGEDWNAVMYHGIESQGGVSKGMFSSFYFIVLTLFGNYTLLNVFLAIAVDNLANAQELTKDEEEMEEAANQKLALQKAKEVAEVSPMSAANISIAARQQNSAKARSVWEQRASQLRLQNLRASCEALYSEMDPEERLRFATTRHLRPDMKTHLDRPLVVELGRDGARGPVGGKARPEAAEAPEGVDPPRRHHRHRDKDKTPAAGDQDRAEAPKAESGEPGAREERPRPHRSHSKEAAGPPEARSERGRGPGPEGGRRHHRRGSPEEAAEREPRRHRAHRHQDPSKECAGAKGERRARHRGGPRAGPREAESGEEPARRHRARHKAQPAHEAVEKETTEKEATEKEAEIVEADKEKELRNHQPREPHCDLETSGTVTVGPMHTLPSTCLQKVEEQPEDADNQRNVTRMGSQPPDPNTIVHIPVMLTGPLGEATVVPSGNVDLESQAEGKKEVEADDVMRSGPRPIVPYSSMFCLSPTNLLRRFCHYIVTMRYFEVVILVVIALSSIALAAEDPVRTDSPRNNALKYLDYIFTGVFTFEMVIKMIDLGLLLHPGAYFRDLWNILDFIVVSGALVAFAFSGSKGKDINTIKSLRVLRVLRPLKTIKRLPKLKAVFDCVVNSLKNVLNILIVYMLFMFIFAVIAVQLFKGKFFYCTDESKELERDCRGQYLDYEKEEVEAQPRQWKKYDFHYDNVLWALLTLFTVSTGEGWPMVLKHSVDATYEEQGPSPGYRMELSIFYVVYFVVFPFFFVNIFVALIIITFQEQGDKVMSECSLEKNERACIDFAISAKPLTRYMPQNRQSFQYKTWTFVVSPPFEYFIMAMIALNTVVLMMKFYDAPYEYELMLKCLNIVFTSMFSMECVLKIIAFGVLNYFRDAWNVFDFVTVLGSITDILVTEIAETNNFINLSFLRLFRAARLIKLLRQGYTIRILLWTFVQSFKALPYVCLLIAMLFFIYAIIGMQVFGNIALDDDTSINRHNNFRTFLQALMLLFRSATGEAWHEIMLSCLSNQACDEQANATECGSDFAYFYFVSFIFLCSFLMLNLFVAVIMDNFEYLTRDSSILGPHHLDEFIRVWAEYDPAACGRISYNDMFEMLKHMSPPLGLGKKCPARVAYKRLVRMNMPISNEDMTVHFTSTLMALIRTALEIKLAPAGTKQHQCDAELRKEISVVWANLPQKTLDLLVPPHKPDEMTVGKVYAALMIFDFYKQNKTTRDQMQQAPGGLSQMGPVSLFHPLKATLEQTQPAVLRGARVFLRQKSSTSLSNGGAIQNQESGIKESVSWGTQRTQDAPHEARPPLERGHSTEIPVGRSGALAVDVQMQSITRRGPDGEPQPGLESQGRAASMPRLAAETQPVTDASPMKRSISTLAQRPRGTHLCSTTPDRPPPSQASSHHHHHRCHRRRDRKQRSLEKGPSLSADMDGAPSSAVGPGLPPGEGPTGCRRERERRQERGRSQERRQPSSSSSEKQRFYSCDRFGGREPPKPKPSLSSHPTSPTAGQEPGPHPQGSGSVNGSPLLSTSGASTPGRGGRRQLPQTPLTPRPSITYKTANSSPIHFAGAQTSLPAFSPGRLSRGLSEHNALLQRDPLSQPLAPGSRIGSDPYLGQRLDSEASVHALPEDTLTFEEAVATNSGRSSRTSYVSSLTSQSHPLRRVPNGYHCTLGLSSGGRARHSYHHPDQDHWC
T1 sequence (P54284 whole entry partner): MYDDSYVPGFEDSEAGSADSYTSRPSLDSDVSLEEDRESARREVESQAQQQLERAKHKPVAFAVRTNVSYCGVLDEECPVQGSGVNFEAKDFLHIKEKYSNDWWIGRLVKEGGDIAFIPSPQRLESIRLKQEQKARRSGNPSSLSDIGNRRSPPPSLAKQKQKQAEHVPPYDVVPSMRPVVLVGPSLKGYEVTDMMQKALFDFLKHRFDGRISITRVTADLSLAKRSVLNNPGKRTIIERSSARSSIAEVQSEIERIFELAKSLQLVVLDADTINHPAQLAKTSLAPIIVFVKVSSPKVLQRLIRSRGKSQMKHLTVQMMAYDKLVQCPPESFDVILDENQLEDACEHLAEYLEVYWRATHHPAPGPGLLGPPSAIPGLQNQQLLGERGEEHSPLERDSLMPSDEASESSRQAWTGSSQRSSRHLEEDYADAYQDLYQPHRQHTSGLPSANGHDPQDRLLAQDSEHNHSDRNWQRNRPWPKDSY
T1 sequence (P54289 25-956 partner limits assumed): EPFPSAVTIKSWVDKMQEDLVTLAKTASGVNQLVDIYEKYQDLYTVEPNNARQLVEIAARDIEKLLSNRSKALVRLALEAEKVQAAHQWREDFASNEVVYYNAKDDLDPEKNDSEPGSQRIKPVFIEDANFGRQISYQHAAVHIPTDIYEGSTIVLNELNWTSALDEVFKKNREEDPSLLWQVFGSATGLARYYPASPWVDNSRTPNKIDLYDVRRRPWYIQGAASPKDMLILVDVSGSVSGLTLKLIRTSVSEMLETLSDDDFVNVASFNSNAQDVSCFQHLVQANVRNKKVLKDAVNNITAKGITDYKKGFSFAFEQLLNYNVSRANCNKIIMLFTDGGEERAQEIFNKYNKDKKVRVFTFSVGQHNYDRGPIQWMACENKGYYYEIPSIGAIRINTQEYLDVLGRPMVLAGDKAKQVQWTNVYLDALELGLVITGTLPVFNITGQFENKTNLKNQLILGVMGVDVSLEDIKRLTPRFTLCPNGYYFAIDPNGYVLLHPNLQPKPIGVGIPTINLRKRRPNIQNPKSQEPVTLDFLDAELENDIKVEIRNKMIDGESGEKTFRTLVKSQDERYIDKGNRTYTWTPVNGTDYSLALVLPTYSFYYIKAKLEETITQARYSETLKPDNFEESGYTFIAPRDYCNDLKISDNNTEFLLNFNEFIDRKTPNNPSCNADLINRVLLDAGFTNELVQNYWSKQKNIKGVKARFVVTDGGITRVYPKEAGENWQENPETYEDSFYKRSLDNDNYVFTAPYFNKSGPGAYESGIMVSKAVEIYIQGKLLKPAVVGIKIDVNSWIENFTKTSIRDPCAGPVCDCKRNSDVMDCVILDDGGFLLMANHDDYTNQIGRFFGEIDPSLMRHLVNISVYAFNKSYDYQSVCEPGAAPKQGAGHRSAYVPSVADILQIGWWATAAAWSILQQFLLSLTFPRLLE
T1 sequence (P54289 957-1103 partner limits assumed): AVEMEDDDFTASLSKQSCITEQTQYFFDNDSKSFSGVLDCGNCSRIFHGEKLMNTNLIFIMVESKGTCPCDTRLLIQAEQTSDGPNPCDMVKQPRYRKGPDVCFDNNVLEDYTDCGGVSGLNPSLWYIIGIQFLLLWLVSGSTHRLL

Row | SMILES | pIC50 (CaV2.2) | pIC50 (NaV1.3) | pIC50 (NaV1.8)
1 | CC(C)N(C(=O)c1cnc(N2CCC3CCCCC3C2)nc1-c1ccccc1F)c1cccc(C#N)c1 (stereo not drawn) [compound 54] | 5.00 to 5.70 | 5.00 to 5.70 | < 5.00
2 | COc1cccc(CN(C(=O)c2cnc(N3CCCCC3)nc2-c2ccccc2Cl)C(C)C)c1 [compound 55] | 5.00 to 5.70 | 5.00 to 5.70 | 5.00 to 5.70
3 | COc1cccc(CN(C(=O)c2cnc(N3CCOCC3)nc2-c2ccccc2F)C2CC2)c1 [compound 56] | 5.00 to 5.70 | < 5.00 | < 5.00
4 | CCC(=O)C1(c2ccccc2)CCN(C(=O)c2cnc(N3CCOCC3)nc2-c2ccccc2F)CC1 [compound 57] | < 5.00 | < 5.00 | < 5.00
5 | COc1cccc(N(C(=O)c2cnc(N3CCCCC3)nc2-c2ccccc2Cl)C2CC2)c1 [compound 58] | < 5.00 | < 5.00 | < 5.00
6 | CC(C)N(Cc1ccc(C(C)(C)C)cc1)C(=O)c1cnc(N2CCSCC2)nc1-c1ccccc1F [compound 59] | > 5.70 | 5.00 to 5.70 | 5.00 to 5.70
7 | O=C(c1cnc(N2CCOCC2)nc1-c1ccccc1F)N(Cc1cccc(-c2ccncc2)c1)C1CC1 [compound 60] | 5.00 to 5.70 | < 5.00 | < 5.00
8 | COc1cccc(N(C(=O)c2cnc(N3CCSCC3)nc2-c2ccccc2F)C(C)C)c1 [compound 62] | 5.00 to 5.70 | 5.00 to 5.70 | < 5.00
9 | Cc1ccc(Nc2ncc(C(=O)N(Cc3ccccc3)C(C)C)c(-c3ccccc3F)n2)cc1 [compound 63] | < 5.00 | < 5.00 | < 5.00
10 | O=C(c1cnc(N2CCOCC2)nc1-c1ccccc1F)N(Cc1ccccc1)C1CCCCC1 [compound 64] | 5.00 to 5.70 | 5.00 to 5.70 | < 5.00
11 | COc1cccc(N(C(=O)c2cnc(N3CCC4CCCCC4C3)nc2-c2ccccc2F)C2CCC2)c1 (stereo not drawn) [compound 65] | 5.00 to 5.70 | < 5.00 | < 5.00
12 | CC(C)N(C(=O)c1cnc(N2CCCCC2)nc1-c1ccccc1F)c1cccc(O)c1 [compound 66] | 5.00 to 5.70 | < 5.00 | < 5.00
13 | CC(C)N(C(=O)c1cnc(N2CCOCC2)nc1-c1ccccc1F)c1ccc2c(c1)OCCO2 [compound 67] | < 5.00 | < 5.00 | < 5.00
14 | COc1cccc(N(C(=O)c2cnc(N3CCC4CCCCC4C3)nc2-c2ccccc2F)C2CCOCC2)c1 (stereo not drawn) [compound 68] | 5.00 to 5.70 | < 5.00 | < 5.00
15 | CC1CN(c2ncc(C(=O)N(Cc3ccccc3)C(C)C)c(-c3ccccc3F)n2)CC(C)O1 (stereo not drawn) [compound 69] | 5.00 to 5.70 | < 5.00 | < 5.00
16 | CC(C)N(C(=O)c1cnc(N2CCCCC2)nc1-c1ccccc1F)c1ccc2c(c1)OCO2 [compound 70] | > 5.70 | 5.00 to 5.70 | < 5.00
17 | O=C(c1cnc(N2CCOCC2)nc1-c1ccccc1F)N1CC=C(c2ccc(F)cc2)CC1 [compound 71] | < 5.00 | < 5.00 | < 5.00
18 | CC(C)N(Cc1ccccc1)C(=O)c1cnc(Nc2cccc(C(N)=O)c2)nc1-c1ccccc1F [compound 73] | < 5.00 | < 5.00 | < 5.00
19 | COc1cccc(CN(C(=O)c2cnc(N3CCOCC3)nc2-c2ccccc2F)C(C)C)c1 [compound 74] | 5.00 to 5.70 | 5.00 to 5.70 | < 5.00
20 | N#CCCN(Cc1ccccc1)C(=O)c1cnc(N2CCOCC2)nc1-c1ccccc1F [compound 75] | < 5.00 | < 5.00 | < 5.00
21 | CC(C)N(C(=O)c1cnc(N2CCOCC2)nc1-c1ccccc1F)c1cccc2ccccc12 [compound 76] | < 5.00 | < 5.00 | < 5.00
22 | O=C(c1cnc(N2CCCCC2)nc1-c1ccccc1F)N(Cc1ccc2c(c1)CCO2)C1CC1 [compound 77] | 5.00 to 5.70 | 5.00 to 5.70 | < 5.00
23 | CC(C)N(Cc1ccccc1)C(=O)c1cnc(N2CCc3ccccc3C2)nc1-c1ccccc1F [compound 78] | > 5.70 | 5.00 to 5.70 | 5.00 to 5.70
24 | O=C(NC1CC1)c1cnc(N2CCOCC2)nc1-c1ccccc1F [compound 79] | < 5.00 | < 5.00 | < 5.00
